Columns and labels:
[1] = target: T1, m5-HT3AR (Mus musculus, UniProt P23979); assay: TEVC selectivity, m5-HT3AR in oocytes; assay type: cell-based; conditions: 30 μM, 30 s preapplication, 2 μM 5-HT (EC20–EC40)
T1 sequence (P23979 24-489): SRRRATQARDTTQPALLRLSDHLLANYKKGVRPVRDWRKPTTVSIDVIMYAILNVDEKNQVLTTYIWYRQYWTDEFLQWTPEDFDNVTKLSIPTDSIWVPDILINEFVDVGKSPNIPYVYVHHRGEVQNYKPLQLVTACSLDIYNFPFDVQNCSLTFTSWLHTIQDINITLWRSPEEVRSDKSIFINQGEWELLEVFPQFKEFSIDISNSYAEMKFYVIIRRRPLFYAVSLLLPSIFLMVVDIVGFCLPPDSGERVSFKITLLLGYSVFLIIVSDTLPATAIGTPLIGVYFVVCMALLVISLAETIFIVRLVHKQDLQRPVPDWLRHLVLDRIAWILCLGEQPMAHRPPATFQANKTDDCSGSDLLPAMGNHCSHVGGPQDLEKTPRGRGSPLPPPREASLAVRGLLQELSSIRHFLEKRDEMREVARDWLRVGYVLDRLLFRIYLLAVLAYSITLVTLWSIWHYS
Description: (§1) The cDNAs for the various WT and chimeric CLR subunits were linearized and subsequently transcribed and capped mMessage mMachine T7 RNA transcription kit (Ambion, Waltham, MA). […]
(§2) On the day of experiment, all compound dilutions were prepared in a saline solution [115 mM NaCl, 2.5 mM KCl, 10 mM MOPS (pH 7.5), 1.8 mM CaCl2, 0.1 mM MgCl2] and pH adjusted to 7.5 (if needed). […] Currents were recorded using pCLAMP 10 (Molecular Devices, Sunnyvale, CA). […]
(§3) In all recordings, the compounds or compound combinations were applied in the bath until the peak current decayed to a steady state (up to 30 sec at the most). […] The functional properties of the modulators at the CLRs were determined by pre-application of the modulator to the perfusate 30 sec and followed by co-application of the modulator and the agonist to the perfusate. […]
(§4) Data analysis of the results from the TEVC recordings were performed using Clampfit software version 10.5 (Molecular Devices, Crawley, UK) and GraphPad Prism version 7.0c (GraphPad Software, Inc. La Jolla, CA). […] I-V relationships were analyzed by fitting the curves with a third order polynomial model. […]

[2] = target: T2, hα1 GlyR (Homo sapiens, UniProt P23415); assay: TEVC selectivity, hα1 GlyR in oocytes; assay type: cell-based; conditions: 30 μM, 30 s preapplication, 100 μM glycine (EC20–EC40)
T2 sequence (P23415 29-457): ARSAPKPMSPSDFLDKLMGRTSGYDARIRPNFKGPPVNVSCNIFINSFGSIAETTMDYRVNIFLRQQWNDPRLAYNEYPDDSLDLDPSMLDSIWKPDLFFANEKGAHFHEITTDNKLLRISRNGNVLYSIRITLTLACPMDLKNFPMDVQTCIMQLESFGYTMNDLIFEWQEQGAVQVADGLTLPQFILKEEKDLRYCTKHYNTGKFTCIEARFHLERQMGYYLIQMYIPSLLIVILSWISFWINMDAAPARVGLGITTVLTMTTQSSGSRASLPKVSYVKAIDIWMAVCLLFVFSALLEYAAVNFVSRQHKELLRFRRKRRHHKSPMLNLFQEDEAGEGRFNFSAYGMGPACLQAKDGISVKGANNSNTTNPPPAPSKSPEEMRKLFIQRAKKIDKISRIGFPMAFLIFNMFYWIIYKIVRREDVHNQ
Description: as §1, §2, §3, §4

[3] = Solubility (remark); assay type: physicochemical

Agonist, antagonist or PAM activity [1]: did not display significant activity
Agonist, antagonist or PAM activity [2]: did not display significant activity
Solubility (in words) [3]: limited solubility
SMILES: CC(C)(C)c1csc(NC(=O)c2cccc(F)c2)n1 [5a, N-(4-(tert-butyl)thiazol-2-yl)-3-fluorobenzamide]

Source: PMC9979163, “Discovery and functional characterization of N-(thiazol-2-yl)-benzamide analogs as the first class of selective antagonists of the Zinc-Activated Channel (ZAC)” (Biochemical pharmacology, 2021)
